Reference: a melting point compilation (Tetko et al.)

Row | SMILES | melting point [°C]
1 | NCc1ccc(-c2ccncc2)cc1 | 64 to 66
2 | CS(=O)c1ccc(C=O)cc1 (stereo not given) | 88 to 90
3 | CC1(C)C(=O)Nc2ccc(Br)cc21 | 156 to 158
4 | Cc1ccnc(S(N)(=O)=O)c1 | 163 to 165
5 | CC(=O)c1ccc(-n2ccnc2C)cc1 | 132 to 134
6 | Cc1cc(Br)c(C)c(S(=O)(=O)Cl)c1 | 163 to 165
7 | COc1cc(C#N)ccc1OC(C)C | 71 to 73
8 | ClCc1nc2cccnc2s1 | 65 to 67
9 | O=C(O)c1cc([N+](=O)[O-])c(Br)cc1F | 152 to 154
10 | O=[N+]([O-])c1cncc(Br)c1 | 99 to 101
11 | CCOC(=O)c1ccccc1C#N | 59 to 61
12 | FC(F)(F)c1nc2c([nH]1)CCCC2 | 229 to 231
13 | CC(C)(C(=O)O)c1ccc(-c2ccccc2)cc1 | 173 to 175
14 | Nc1ncc([N+](=O)[O-])cc1C(=O)O | 239 to 241
15 | Cn1cccc1-c1csc(N)n1 | 79 to 81
16 | COc1cc(Cl)ccc1S(N)(=O)=O | 169 to 171
17 | CCC(C)C(NC(N)=O)C(=O)O (stereo not given) | 205 to 207
18 | Clc1ccc(-n2ccnc2)nn1 | 185 to 187
19 | Cc1c(-c2csc(N)n2)sc2ccccc12 | 170 to 172
20 | Nc1ccc(OCc2cccc(C(F)(F)F)c2)cc1 | 67 to 69
21 | CCOc1cc(CC#N)cc(Cl)c1OC(F)F | 79 to 81
22 | N#Cc1ccc(Oc2cccc([N+](=O)[O-])c2)cc1 | 124 to 126
23 | CCc1ncc(C(=O)O)s1 | 151 to 153
24 | Cc1cc(C)cc(-c2cc(N)[nH]n2)c1 | 75 to 77

Row | SMILES | melting point [°C]
25 | Sc1nnc(NC2CC2)s1 | 170 to 172
26 | c1ccc2[nH]c(C3CCNCC3)cc2c1 | 192 to 194
27 | CC(C)Nc1nnc(S)s1 | 194 to 196
28 | O=C(c1ccc(Cl)cc1)c1ccsc1 | 92 to 94
29 | Cn1ccnc1Sc1ccc(F)cc1N | 136 to 138
30 | Cc1cc2nc(Cl)cc(=O)n2o1 | 203 to 204
31 | COc1cc(C)nc(NN)n1 | 116 to 118
32 | Cc1n[nH]c(C(F)(F)Cl)c1C(=O)O | 260 to 262
33 | Cc1n[nH]c(C)n1 | 127 to 131
34 | COC(=O)C(O)c1cc(Cl)cc(Cl)c1 (stereo not given) | 80 to 82
35 | O=C(Cn1cnnn1)N1CCNCC1 | 143 to 145
36 | COc1ccc(Cc2nnc(N)s2)cc1 | 174 to 176
37 | N#Cc1ccc(Oc2ccc(Cl)cc2)c(F)c1 | 67 to 69
38 | CSc1nc2[nH]cnc(=O)c2s1 | 269 to 271
39 | O=Cc1ccc2cn[nH]c2c1 | 179 to 181
40 | Cc1ccc2ccccc2c1S(=O)(=O)Cl | 76 to 78
41 | COc1ccc(C#N)cc1C | 49 to 51
42 | CN(C)c1ncnc(Cl)c1C=O | 141 to 143
43 | Fc1ccc(-n2c(S)nc3ccccc32)cc1 | 237 to 239
44 | CS(=O)c1cccc(N)c1 (stereo not given) | 110 to 112
45 | Cc1cc(C(=O)CCl)c(F)cc1F | 80 to 82
46 | CC(C)C(C(=O)O)N1CCN(C)CC1 (stereo not given) | 195 to 197
47 | Cc1ccc(Cn2nc(C)c(C=O)c2C)cc1 | 65 to 67
48 | O=C1NC(=O)N(C2CCS(=O)(=O)C2)C1=O (stereo not given) | 244 to 246

Row | SMILES | melting point [°C]
49 | CC(=O)c1sc2nc(C)cc(C)c2c1N | 174 to 176
50 | N#CCCn1cc(C(=O)O)c(-c2cccc(Br)c2)n1 | 154 to 156
51 | CC1CN(c2ccc(N)cc2F)CC(C)O1 (stereo not given) | 116 to 118
52 | O=[N+]([O-])c1cccc(Sc2ccccc2)c1 | 38 to 40
53 | Cc1c(N)cnn1CCC(C)C | 46 to 48
54 | N#Cc1ccc(NC2CC2)cc1 | 79 to 81
55 | COCCOc1ccc(/C(C)=N\O)cc1OC | 124 to 126
56 | CC(C)(C)OC(=O)N1CCC(=O)C(Br)C1 (stereo not given) | 95 to 97
57 | C#CCNC(=O)CC(=O)O | 64 to 66
58 | NCC(O)(c1ccccc1)C(F)(F)F (stereo not given) | 76 to 78
59 | O=S(=O)(Cl)C1=Cc2ccccc2CC1 | 59 to 61
60 | CCCCOc1ccc(-c2cc(N)on2)cc1 | 112 to 114
61 | CCn1nc(C)c(C(C)=O)c1C | 30 to 32
62 | COc1ccc(CC#N)cn1 | 49 to 51
63 | O=Cc1nc(-c2ccccc2)c[nH]1 | 170 to 172
64 | CNS(=O)(=O)c1cc(N)ccc1C | 133 to 137
65 | CS(=O)(=O)c1cc(Br)ccc1N | 129 to 131
66 | CN(C)c1nnc(S)s1 | 178 to 180
67 | OCCCc1nc2ncccn2n1 | 76 to 78
68 | Nc1c(O)c(Cl)cc(Cl)c1Cl | 119 to 121
69 | CC(C)(C)OC(=O)NCc1nnc(-c2cccnc2)[nH]1 | 196 to 198
70 | O=S(=O)(F)Cc1ccc(Cl)nc1 | 81 to 83

Second part, the compound after the results:

Row | melting point [°C] | SMILES
71 | 109 to 111 | Cc1csc(C2(O)C(=O)N(Cc3ccccc3)CC2C(=O)O)n1 (stereo not given)
72 | 111 to 113 | CC(=O)c1cccc(NC(=O)C(C)Cl)c1 (stereo not given)
73 | 247 to 249 | O=C(Cn1cc(C(=O)O)cn1)NC1CCCCC1
74 | 165 to 167 | O=Cc1cc(C(=O)O)co1
75 | 125 to 127 | NC(=O)Nc1cccc(N)c1
76 | 214 to 216 | O=C(Nc1ccc(F)cc1)Nc1cccc(O)c1
77 | 130 to 132 | O=C(O)C1SCCc2ccccc21 (stereo not given)
78 | 110 to 116 | CC(=O)N1CCN(C(=O)CCC(=O)O)CC1
79 | 125 to 127 | COc1ccc(F)cc1C(F)(F)C(=O)O
80 | 96 to 98 | CC(Cl)C(=O)Nc1ccc(F)c([N+](=O)[O-])c1 (stereo not given)
81 | 66 to 68 | O=C(O)CSCc1ccc(Cl)s1
82 | 122 to 124 | Cc1cc(Cl)ccc1OC(C(=O)O)c1ccccc1 (stereo not given)
83 | 245 to 247 | O=C(O)c1cnc(S)n1-c1ccccc1
84 | 103 to 105 | CCOC(=O)N1CCNC(=O)CC1
85 | 239 to 241 | O=C(O)c1cccc(-c2nnco2)c1
86 | 260 to 262 | Sc1nnc(CN2CCCC2)n1-c1ccc(Cl)cc1
87 | 247 to 249 | N#Cc1ccc(Nc2cccc(C(=O)O)c2)cc1
88 | 135 to 137 | O=C(O)C1CCCN1C(=O)C1CCCCC1 (stereo not given)
89 | 142 to 144 | NC(CC(=O)Nc1ccc(F)cc1)=NO
90 | 43 to 48 | COc1ccc(NC(=O)Oc2ccccc2)c([N+](=O)[O-])c1
91 | 179 to 181 | O=C(c1[nH]nc2ccccc12)N1CCNCC1
92 | 176 to 178 | CC(=O)c1ccc2c(c1)CC(=O)N2C
93 | < 17 | CC1N=C(S)N(Cc2ccccc2)C1=O (stereo not given)
94 | 155 to 157 | Cc1ccc(C(=O)NC(C(=O)O)C(C)C)cc1 (stereo not given)
95 | 143 to 145 | CCc1cc(OCC(=O)O)ccc1Cl

Row | melting point [°C] | SMILES
96 | 143 to 145 | CC(=O)NCc1ccc(C(=O)CCl)s1
97 | 138 to 140 | O=C(O)CNC(=O)NCC1CCCC1
98 | 202 to 204 | Nc1nc2c(s1)CCCCCC2
99 | 130 to 132 | O=C(O)c1nnn(-c2cccc(F)c2)c1C(F)(F)F
100 | 115 to 117 | Nc1ccc(S(=O)(=O)N=C2CCCCCN2)cc1
101 | 127 to 129 | Cc1cccc(C(=O)O)c1-n1cccc1
102 | 148 to 150 | NC(=O)C1(Nc2ccccc2)CCCCC1
103 | 264 to 266 | COC(=O)c1c[nH]c(=O)c(C#N)c1
104 | 157 to 159 | COCCOc1ccc(-n2nc(C)c(C(=O)O)n2)cc1
105 | 144 to 146 | CC(=O)Nc1cccc2c1CCCN2
106 | 191 to 193 | O=C(O)CCc1nnc(-c2ccccn2)o1
107 | 120 to 122 | CCOC(=O)c1sc(NCCCC(=O)O)nc1-c1ccccc1
108 | 104 to 106 | O=C(O)CCCCNC(=O)OCc1ccccc1
109 | 121 to 123 | COC(=O)c1ccc(Sc2ccc(Cl)cn2)c(N)c1
110 | 188 to 190 | O=C(CC1SC(N2CCCCC2)=NC1=O)Nc1cccc(C(=O)O)c1 (stereo not given)
111 | 219 to 221 | COc1ccc2nc(C3CC3)cc(C(=O)O)c2c1
112 | 36 to 37 | O=C(CCc1ccccc1)c1ccccc1O
113 | 157 to 159 | O=C(c1cccnc1O)N1CCCNCC1
114 | 123 to 125 | O=C(CCl)NCc1ccc(COc2ccccc2)cc1
115 | 176 to 178 | Nc1ccc(NS(=O)(=O)c2ccc3c(c2)OCCO3)cc1
116 | 49 to 51 | O=C1CCNc2ccc(F)cc21
117 | 158 to 160 | O=C(O)c1nc(NCCc2ccccc2)ncc1Cl
118 | 55 to 59 | COc1ccc2c(c1)C(=O)CCC2
119 | 141 to 143 | Cc1cccc(C2(C(=O)O)CCCCC2)c1
120 | 273 to 275 | NC(C(=O)O)c1cccc(F)c1 (stereo not given)

Row | melting point [°C] | SMILES
121 | 291 to 293 | CCNc1cc(C(=O)O)ccn1
122 | 179 to 181 | NC(=NO)c1ccnc(N2CCCCC2)c1
123 | 269 to 271 | O=C(O)c1ccc(N2CCCC2)c(F)c1
124 | 158 to 160 | O=S(=O)(Nc1nc2ccccc2nc1Cl)c1cccc(Cl)c1
125 | 193 to 195 | CC(Br)C(=O)c1ccc2c(c1)CCC(=O)N2 (stereo not given)
126 | 83 to 85 | Cc1c(S(=O)(=O)Cl)sc2cc(Cl)ccc12
127 | 318 to 320 | O=C(O)c1cc2ccccc2c(=O)[nH]1
128 | 160 to 162 | O=C(O)c1cnc(-c2ccc(C(F)(F)F)cc2)s1
129 | 108 to 110 | O=c1nc(Cl)sc2ccccc12
130 | 109 to 111 | COC(=O)C(CO)NC(=O)C1CCCCC1 (stereo not given)
131 | 99 to 101 | O=C(O)Cc1ccn(-c2ccccc2)n1
132 | 169 to 171 | NC(=O)c1ccc(NCc2ccccc2)c(N)c1
133 | 160 to 162 | Cc1cc(/C=C/C(=O)O)c(C)n1-c1nccs1
134 | 41 to 43 | O=Cc1c(F)cccc1N1CCCC1
135 | 169 to 171 | O=C(O)c1nnn(-c2cccc(C(F)(F)F)c2)c1C1CC1
136 | 249 to 251 | NC1=NNC(=O)C1c1ccccc1 (stereo not given)
137 | 54 to 56 | OC1(CNCc2ccccc2)CCc2ccccc21 (stereo not given)
138 | 79 to 81 | O=C1C(Br)CCN1c1c(F)cccc1F (stereo not given)
139 | 167 to 169 | NC(CC(=O)NC1CCCCC1)=NO
140 | 120 to 122 | CC(=O)N1CCC(C)(C(=O)O)C1 (stereo not given)
141 | 206 to 208 | O=C(O)c1sccc1-c1ccccc1
142 | 66 to 68 | CCOC(=O)C(=O)CC(=O)c1cccnc1
143 | 190 to 192 | O=C(O)CNC(=O)c1ccc(Cl)c([N+](=O)[O-])c1
144 | 216 to 218 | O=C(c1cc2ccccc2cc1O)N1CCOCC1
145 | 208 to 210 | O=C(O)CNC(=O)c1cc(-c2ccccc2)on1
